From patent US9403800B2, “Compounds for inhibition of cancer cell proliferation” (ChemRegen, Inc., priority 2012, dated 2016)

Legend:
NF-B signaling pathway = NF-B signaling pathway transcriptional activity (selectivity); format: cell-based
[1] = chemical stability by HPLC; format: physicochemical; details: determined by HPLC
Text: As observed from the data presented in Table 1, both free bases and salts gave significant Wnt inhibition potency. On the basis of the lipophilic character of many of the analogs, it is likely interaction site on the molecular target has a lipophilic character although polar interactions are apparent. To increase solubility, were possible, hydrochloride salts of the sulfonamides were synthesized. To afford appropriate bioavailability, sulfonamides were synthesized with chemical and metabolic stability in mind.

HEK-293T cells [2] = test: Alamar Blue resazurin-based cell viability assay, HEK-293T; details: Homo sapiens, read-out: decrease of cell viability, EC50
[3] = tested on: normal human fibroblast cells; test: effect on normal human fibroblast cells; format: cell-based
[4] = tested on: SW480 colorectal cancer model cell line; test: SW480 cell proliferation and cell cycle (InCell 1000); format: cell-based, human
Text: Previous studies have shown that the Wnt signaling pathway drives cellular proliferation of a number of cancers through up-regulation of genes for several proteins crucial for cell division including Cyclin D1, c-Myc, etc. and treatment of cancer cells with 1 or analogs decreases cellular proliferation. Accordingly, we examined the effect of 1 and analogs on cell proliferation of human cancer cell lines. […] The results were confirmed by studying the effects of 1 on SW480 human colon cell cycle determined by cell images captured by InCell 1000.

HEK-293T cells [5] = test: cytotoxicity by leakage of G6PDH, HEK-293T; format: cell-based
TGF-signaling pathway = TGF-signaling pathway transcriptional activity (selectivity); format: cell-based
[6] = tested on: canonical Wnt target genes, Cyclin D1 (CCND1), Axin2 (AXIN2), and c-Myc (c-MYC); test: mRNA levels of canonical Wnt target genes in HEK293T and SW480 cells; format: cell-based; details: HEK293T and SW480 colorectal cells

Structure (SMILES): O=C1CCCN1c1ccc(S(=O)(=O)N2CCCc3ccccc32)cc1 [Compound 1, 1-(4-(3,4-dihydroquinolin-1(2H)-ylsulfonyl)phenyl)pyrrolidin-2-one]
- transcriptional activity of the NF-B signaling pathway (NF-B signaling pathway): did not alter the transcriptional activity
- half-life [1]: 120 h
- EC50 (HEK-293T cells [2]): ~25 nM
- effect on normal human fibroblast cells [3]: did not have any affect on normal human fibroblast cells
- Ki67 protein levels ([4]; SW480 cells): elevated
- cell cycle distribution ([4]; SW480 cells, InCell 1000 images): significantly more cells in G2 and less in G1/S phases
- cancer cell proliferation (in words) ([4]; SW480 colon cancer cell line): significantly inhibited cancer cell proliferation
- cytotoxicity (leakage of G6PDH) (HEK-293T cells [5]): not cytotoxic
- transcriptional activity of the TGF-signaling pathway (TGF-signaling pathway): did not alter the transcriptional activity
- mRNA levels of canonical Wnt target genes CCND1, AXIN2, c-MYC [6]: decrease in mRNA levels
